# Experimental data from patent publication US20260262643A1, “HERBICIDAL BENZOXAZINES” (FMC CORPORATION, priority 2022, published 2026).
# Columns and labels:
# ryegrass, Italian [1] = assay: Test C preemergence; format: in vivo, Lolium multiflorum; settings: Preemergence, 1000 g ai/ha; visual rating after 10 days, 0 to 100 scale (0 no effect, 100 complete control)
# Procedure, shortened: (§1)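 Soil-applied (pre) and foliar (post, 1–2 leaf, 2–10 cm) sprays; surfactant-containing non-phytotoxic solvent vehicle; loam/sand substrate. Readout: visual % control at 10 d, greenhouse, versus untreated.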
# ryegrass, Italian [2] = assay: Test C postemergence; format: in vivo, Lolium multiflorum; settings: Postemergence, 1000 g ai/ha
# Procedure, shortened: as §1
# kochia [3] = assay: Test C preemergence; format: in vivo, Bassia scoparia; settings: Preemergence, 1000 g ai/ha; visual rating after 10 days, 0 to 100 scale (0 no effect, 100 complete control)
# Procedure, shortened: as §1
# wheat = assay: Test C postemergence; format: in vivo, Triticum aestivum; settings: Postemergence, 1000 g ai/ha
# Procedure, shortened: as §1
# corn = assay: Test C postemergence; format: in vivo, Zea mays; settings: Postemergence, 1000 g ai/ha
# Procedure, shortened: as §1
# foxtail, giant [4] = assay: Test C postemergence; format: in vivo, Setaria faberi; settings: Postemergence, 1000 g ai/ha
# Procedure, shortened: as §1
# ragweed [5] = assay: Test C preemergence; format: in vivo, Ambrosia artemisiifolia; settings: Preemergence, 1000 g ai/ha; visual rating after 10 days, 0 to 100 scale (0 no effect, 100 complete control)
# Procedure, shortened: as §1
# galium = assay: Test C postemergence; format: in vivo, Galium aparine; settings: Postemergence, 1000 g ai/ha
# Procedure, shortened: as §1
# blackgrass = assay: Test C postemergence; format: in vivo, Alopecurus myosuroides; settings: Postemergence, 1000 g ai/ha
# Procedure, shortened: as §1
# kochia [6] = assay: Test C postemergence; format: in vivo, Bassia scoparia; settings: Postemergence, 1000 g ai/ha
# Procedure, shortened: as §1
# barnyardgrass [7] = assay: Test C postemergence; format: in vivo, Echinochloa crusgalli; settings: Postemergence, 1000 g ai/ha
# Procedure, shortened: as §1
# ragweed [8] = assay: Test C postemergence; format: in vivo, Ambrosia artemisiifolia; settings: Postemergence, 1000 g ai/ha
# Procedure, shortened: as §1
# Pigweed, Redroot [9] = assay: Test C preemergence; format: in vivo, Amaranthus retroflexus; settings: 1000 g ai/ha, visual rating after 10 days, 0 to 100 scale (0 no effect, 100 complete control)
# Description: (§2) Seeds of plant species selected from barnyardgrass (Echinochloa crusgalli), blackgrass (Alopecurus myosuroides), corn (Zea mays), foxtail, giant (giant foxtail, Setaria faberi), green foxtail (Setaria viridis), goosegrass (Eleusine indica), kochia (Bassia scoparia), oat, wild (wild oat, Avena fatua), pigweed, palmer (palmer amaranth, palmer pigweed, Amaranthus palmeri), Pigweed, Redroot (redroot pigweed, Amaranthus retroflexus), ragweed (common ragweed, Ambrosia artemisiifolia), ryegrass, Italian ([…] ryegrass, Lolium multiflorum), soybean (Glycine max), and wheat (Triticum aestivum) were planted into a blend of loam soil and sand and treated preemergence with a directed soil spray using test chemicals formulated in a non-phytotoxic solvent mixture which included a surfactant. At the same time, plants selected from these crops and weed species and also galium (catchweed bedstraw, Galium aparine) and horseweed (Erigeron canadensis) were planted in pots containing the same blend of loam soil and sand and treated with postemergence applications of test chemicals formulated in the same manner. Plants ranged in height from 2 to 10 cm and were in the one- to two-leaf stage for the postemergence treatment. Treated plants and untreated controls were maintained in a greenhouse for 10 days, after which time all treated plants were compared to untreated controls and visually evaluated for injury. Plant response ratings, summarized in Table C, are based on a 0 to 100 scale where 0 is no effect and 100 is complete control. A dash (-) response means no test result.
# foxtail, giant [10] = assay: Test C preemergence; format: in vivo, Setaria faberi; settings: Preemergence, 1000 g ai/ha; visual rating after 10 days, 0 to 100 scale (0 no effect, 100 complete control)
# Procedure, shortened: as §1
# barnyardgrass [11] = assay: Test C preemergence; format: in vivo, Echinochloa crusgalli; settings: Preemergence, 1000 g ai/ha; visual rating after 10 days, 0 to 100 scale (0 no effect, 100 complete control)
# Procedure, shortened: as §1
# Pigweed, Redroot [12] = assay: Test C postemergence; format: in vivo, Amaranthus retroflexus; settings: 1000 g ai/ha
# Description: as §2
# [13] = 0 to 100 scale, 0 no effect, 100 complete control
# [14] = 10 days, visual 0 to 100 scale (0 no effect, 100 complete control)
Structure (SMILES),"Plant response rating, Ryegrass, Italian (ryegrass, Italian [1])","Plant response rating, Ryegrass, Italian (ryegrass, Italian [2]; [13])","Plant response rating, Kochia (kochia [3])","Plant response rating, Wheat (wheat; [13])","Plant response rating, Corn (corn; [13])","Plant response rating, Foxtail, Giant (foxtail, giant [4]; [13])","Plant response rating, Ragweed (ragweed [5])","Plant response rating, Galium (galium; [13])","Plant response rating, Blackgrass (blackgrass; [13])","Plant response rating, Kochia (kochia [6]; [13])","Plant response rating, Barnyardgrass (barnyardgrass [7]; [13])","Plant response rating, Ragweed (ragweed [8]; [13])","Plant response rating, Pigweed, Redroot (Pigweed, Redroot [9])","Plant response rating, Foxtail, Giant (foxtail, giant [10])","Plant response rating, Barnyardgrass (barnyardgrass [11])","Plant response rating, Pigweed, Redroot (Pigweed, Redroot [12]; [13])",further results
CC1CN(C(=O)c2ccnc(-n3ccnc3)c2)c2cccc(Cl)c2O1 (stereo not drawn) [Compound 197],0,0,0,0,0,0,0,30,0,10,0,0,30,30,0,50,
CC1CN(C(=O)c2ccnc(-c3ccccn3)c2)c2cccc(Cl)c2O1 (stereo not drawn) [Compound 198],0,0,0,20,0,0,0,0,0,0,20,0,0,0,10,0,
C[C@H]1CN(C(=O)c2cccc(-n3ccnn3)c2)c2cccc(Cl)c2O1 [Compound 199],30,40,0,0,10,20,0,20,20,10,30,0,20,50,0,40,
C[C@H]1CN(C(=O)c2cccc(-c3cccnc3)c2)c2cccc(Cl)c2O1 [Compound 200],0,0,0,0,20,0,0,30,0,0,10,0,0,0,0,20,
CC1(C)CN(C(=O)c2ccnc(-n3cncn3)c2)c2ccccc2O1 [Compound 202],0,0,0,30,,0,0,0,,0,0,0,0,0,0,0,"Corn plant response rating (crop injury, 0 = no effect, 100 = complete kill) at 1000 g/ha (corn; Zea mays, post-emergence, 240 h, 0 to 100 scale, 0 no effect, 100 complete control): 0%; pest or weed control at 1000 g/ha (blackgrass; Alopecurus myosuroides, post-emergence, 240 h, 0 to 100 scale, 0 no effect, 100 complete control, read-out: Plant response rating, Blackgrass): 0%"
C[C@H]1CN(C(=O)c2cccc(-c3ccncn3)c2)c2cccc(Cl)c2O1 [Compound 287],20,,30,,,,0,,,,,,0,0,60,,"Plant response rating, Ryegrass, Italian (ryegrass, Italian [2]; [14]): 0; Plant response rating, Wheat (wheat; [14]): 0; Plant response rating, Corn (corn; [14]): 0; Plant response rating, Foxtail, Giant (foxtail, giant [4]; [14]): 10; Plant response rating, Galium (galium; [14]): 20; Plant response rating, Blackgrass (blackgrass; [14]): 0; Plant response rating, Kochia (kochia [6]; [14]): 10; Plant response rating, Barnyardgrass (barnyardgrass [7]; [14]): 20; Plant response rating, Ragweed (ragweed [8]; [14]): 0; Plant response rating, Pigweed, Redroot (Pigweed, Redroot [12]; [14]): 20"
